According to article PMC10791743, “Selective CK1α degraders exert antiproliferative activity against a broad range of human cancer cell lines” (Nature Communications, 2024):
Values joined by “and” are separate entries in the source; they are usually repeats but may differ in a detail not shown here. Equal values may be shown once. Read-outs that look alike come from different tables or passages of the source.

Assays:
[1] = biological target: T1, IKZF1 (Homo sapiens, UniProt Q13422+Q96SW2); assay: IKZF1 HiBiT live-cell kinetic degradation assay (Jurkat cells); format: cell-based
T1 construct: engineered by CRISPR/Cas9 to express endogenous IKZF1 (Jurkat cells) with a HiBiT tag
T1 sequence (Q13422 whole entry): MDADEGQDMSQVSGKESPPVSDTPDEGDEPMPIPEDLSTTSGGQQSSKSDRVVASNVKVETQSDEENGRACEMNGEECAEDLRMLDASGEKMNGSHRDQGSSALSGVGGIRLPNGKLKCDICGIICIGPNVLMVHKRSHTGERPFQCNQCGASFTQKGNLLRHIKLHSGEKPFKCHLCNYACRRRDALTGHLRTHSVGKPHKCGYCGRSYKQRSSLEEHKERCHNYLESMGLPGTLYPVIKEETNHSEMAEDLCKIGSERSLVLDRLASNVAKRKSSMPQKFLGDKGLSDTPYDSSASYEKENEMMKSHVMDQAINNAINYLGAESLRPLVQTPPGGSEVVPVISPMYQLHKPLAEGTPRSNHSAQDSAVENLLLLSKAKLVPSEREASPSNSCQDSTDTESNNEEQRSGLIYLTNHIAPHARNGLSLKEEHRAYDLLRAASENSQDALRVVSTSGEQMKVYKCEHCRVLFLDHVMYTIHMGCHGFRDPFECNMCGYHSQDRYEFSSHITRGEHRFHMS
T1 sequence (Q96SW2 whole entry): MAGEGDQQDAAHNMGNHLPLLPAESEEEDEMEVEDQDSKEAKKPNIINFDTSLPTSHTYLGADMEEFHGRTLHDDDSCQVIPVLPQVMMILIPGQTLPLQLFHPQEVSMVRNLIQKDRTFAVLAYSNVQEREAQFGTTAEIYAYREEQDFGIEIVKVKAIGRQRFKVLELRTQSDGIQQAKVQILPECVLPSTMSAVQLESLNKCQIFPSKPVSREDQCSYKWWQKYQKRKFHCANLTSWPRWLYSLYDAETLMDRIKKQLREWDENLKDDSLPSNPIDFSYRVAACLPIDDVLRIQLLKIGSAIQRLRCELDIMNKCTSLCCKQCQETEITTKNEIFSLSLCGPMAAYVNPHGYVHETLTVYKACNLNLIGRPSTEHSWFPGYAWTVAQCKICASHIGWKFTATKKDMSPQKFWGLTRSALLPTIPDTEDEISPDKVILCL
T1 sequence (Q16531 whole entry partner): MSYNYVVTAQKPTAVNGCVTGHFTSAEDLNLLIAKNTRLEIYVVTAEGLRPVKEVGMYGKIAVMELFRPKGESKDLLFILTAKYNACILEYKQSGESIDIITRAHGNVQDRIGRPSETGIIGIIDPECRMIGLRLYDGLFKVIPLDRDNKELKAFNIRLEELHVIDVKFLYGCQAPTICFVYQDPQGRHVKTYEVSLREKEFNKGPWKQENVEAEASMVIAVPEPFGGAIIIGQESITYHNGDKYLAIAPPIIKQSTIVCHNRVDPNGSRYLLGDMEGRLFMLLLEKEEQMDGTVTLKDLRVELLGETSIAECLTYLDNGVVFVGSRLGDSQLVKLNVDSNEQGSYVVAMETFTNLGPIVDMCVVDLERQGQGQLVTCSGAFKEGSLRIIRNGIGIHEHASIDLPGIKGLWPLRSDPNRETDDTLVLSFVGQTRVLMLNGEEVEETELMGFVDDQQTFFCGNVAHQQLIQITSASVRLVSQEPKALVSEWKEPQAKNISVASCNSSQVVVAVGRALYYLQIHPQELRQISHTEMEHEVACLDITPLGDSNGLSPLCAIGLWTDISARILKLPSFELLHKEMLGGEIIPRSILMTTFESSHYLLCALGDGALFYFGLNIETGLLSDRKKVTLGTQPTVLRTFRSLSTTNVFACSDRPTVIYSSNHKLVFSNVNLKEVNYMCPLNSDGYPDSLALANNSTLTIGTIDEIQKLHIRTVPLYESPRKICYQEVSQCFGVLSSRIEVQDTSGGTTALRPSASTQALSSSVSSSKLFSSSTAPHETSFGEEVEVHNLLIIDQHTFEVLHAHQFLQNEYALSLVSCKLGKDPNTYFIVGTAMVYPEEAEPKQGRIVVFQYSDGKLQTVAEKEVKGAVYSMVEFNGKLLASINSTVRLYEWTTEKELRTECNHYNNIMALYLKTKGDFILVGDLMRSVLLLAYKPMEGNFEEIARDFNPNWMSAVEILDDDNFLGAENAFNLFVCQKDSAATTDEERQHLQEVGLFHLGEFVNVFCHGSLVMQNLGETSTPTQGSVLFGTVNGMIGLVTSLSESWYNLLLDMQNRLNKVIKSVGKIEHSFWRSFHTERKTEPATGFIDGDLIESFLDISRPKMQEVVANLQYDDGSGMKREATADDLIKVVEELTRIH
Description: To measure cellular protein levels, we used cell lines that have been engineered by CRISPR/Cas9 to express endogenous CK1α (HEK293 cells) or IKZF1 (Jurkat cells) with a HiBiT tag, which when coupled with LgBiT expression forms NanoBiT, a bioluminescent protein that can be used for kinetic studies of protein degradation. […] Cell viability was also monitored with CellTiter Glo 2.0 (Promega) at the completion of the experiment to ensure that loss of protein was not a consequence of a loss of cell viability.
IKZF1-HiBiT Jurkat LgBiT stable cells were seeded at 60,000 cells/well in 50% growth media/50% CO2 independent medium supplemented with 10% FBS and 1× Endurazine substrate. […] A dose–response curve was generated by performing 3-fold dilutions of each compound including a DMSO-only control in growth media. For live cell kinetic degradation assays, diluted compounds were added to CK1α and β-catenin plates and placed in a GloMax Discover (Promega, Cat. #GM3000) preheated to 37 °C or added to IKZF1 plates and placed in a CLARIOstar Plus (BMG LABTECH) preheated to 37 °C.
Relative protein level was determined based on normalization to the DMSO control and reported at Fractional RLUs. Degradation rate and degradation maximums were calculated from Fractional RLUs as previously described[38] using GraphPad Prism software. β-catenin stabilization time of onset for each concentration curve was calculated in GraphPad Prism by fitting an unconstrained plateau followed by one phase association model using the equation below (Y = IF(X < X0, Y0,Y0+(Plateau−Y0)*(1−exp(−K*(X−X0))))). The parameter, X0 was used as time of onset for each compound concentration.

[2] = biological target: CK1α (Homo sapiens, UniProt P48729+Q96SW2); assay: CK1α immunoblotting in MOLM-13 cells; format: cell-based; set-up: immunoblot analysis of CK1α in MOLM-13 cells following treatment with increasing concentrations of SJ7095 over 4 h; endogenous in cells; host or cells: MOLM-13 (DSMZ ACC 554); conditions: for Dmax: read-out: CK1α Dmax (immunoblot); for CK1a western blot quantification: CK1a data from blots in fig 2b
CK1α, sequence (P48729 whole entry, the tested form may be a part): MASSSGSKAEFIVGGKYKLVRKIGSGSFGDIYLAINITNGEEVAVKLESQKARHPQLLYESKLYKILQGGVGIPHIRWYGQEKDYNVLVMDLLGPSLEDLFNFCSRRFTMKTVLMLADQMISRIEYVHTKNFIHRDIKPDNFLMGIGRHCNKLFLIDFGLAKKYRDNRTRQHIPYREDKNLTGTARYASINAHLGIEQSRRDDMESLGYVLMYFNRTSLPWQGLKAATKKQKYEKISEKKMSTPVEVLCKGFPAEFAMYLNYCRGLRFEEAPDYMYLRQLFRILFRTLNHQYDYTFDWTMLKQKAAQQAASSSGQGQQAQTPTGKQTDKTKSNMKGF
CK1α, sequence (Q96SW2 whole entry, the tested form may be a part): as the sequence (Q96SW2 whole entry) above
CK1α, sequence (Q16531 whole entry partner, the tested form may be a part): as the sequence (Q16531 whole entry partner) above
Experimental: Frozen pellets of ~1 million cells were lysed in 150 µl of SDS lysis buffer (60 mM Tris/HCl pH 7, 10% glycerol, 2% SDS, 5% beta-mercaptoethanol, 0.02% bromophenol blue, 0.5% protease and phosphatase inhibitor cocktail (Sigma Aldrich)). When cells were resuspended, samples were heated for 3 min at 99 °C then put on ice. Samples were then fragmented by sonication for 10 0.5-s pulses (550 Sonic Dismembrator, Fisher Scientific) and heated again at 99 °C for 2 min. 15 μl of each sample was added to the wells of a 4–20% polyacrylamide gel (Bio-Rad). A mixture of 2 μl of Precision Plus Protein Unstained Standards and 2 μl of Precision Plus Protein All Blue Standards (Bio-Rad) was used for the size marker. After electrophoresis, gels were transferred to nitrocellulose membrane using the Bio-Rad Trans-Blot Turbo system on the mixed molecular weight setting. Membranes were blocked for 1 h in Li-Cor Intercept Blocking Buffer then probed overnight at 4 °C with primary antibody, at 1:1000 dilution or 1:2000 dilution for actin, in Li-Cor Intercept Antibody Diluent. The following morning, membranes were washed three times for 5 min with TBS + 0.05% Tween-20, probed with fluorescent secondary antibodies (goat anti-rabbit IRDye 800CW and goat anti-mouse IRDye 680RD, Li-Cor) for 1 h at room temperature in the dark at 1:10,000 dilution, and washed again 3 times. Blots were imaged with the Li-Cor Odyssey CLx and analyzed using Image Studio Version 5.2.

[3] = tested on: MOLM-13 cells; assay: Annexin-V staining for apoptosis, wild type MOLM-13; format: cell-based, human; conditions: for Treatment-induced cell death (annexin-V): vs DMSO; for total apoptosis, flow cytometry: MOLM-13; for Late apoptosis, flow cytometry / Early apoptosis, flow cytometry: WT
Experimental: (§1) Wild type and CRBN^−/− MOLM-13 cells were grown in 12-well plates (TPP, Techno Plastic Products AG) with 500,000 cells per well in 2 ml total media volume. Cells were treated with 1 μl/ml DMSO or 1 μM compound in triplicate, and incubated for 24 or 72 h at 37 °C. To prepare samples, this buffer was used: 10 mM HEPES, 0.14 M NaCl, 2.5 mM CaCl2 pH 7.4, 2% v/v FBS in UltraPure water (Invitrogen). After incubation, samples were collected in 5-ml tubes for flow cytometry (Falcon). Single-stain controls consisted of ~150 μl of multiple samples combined. Wells were washed with 1 ml of buffer that was added to the corresponding sample tube. Cells were centrifuged at 500×g for 5 min at 4 °C to form a pellet. Supernatant was decanted and cells were washed again with 3 ml of buffer, then centrifuged. After decanting the supernatant, 3 μl of APC-conjugated anti-Annexin-V antibody (BioLegend) was added to each tube in the residual buffer left behind. Samples were mixed by vortex and incubated at room temperature in the dark for 20 min. Samples were then washed and centrifuged a final time, decanting the supernatant and blotting the tubes to remove residual buffer. 50 μl of buffer with DAPI was added to all appropriate samples and mixed, then analyzed by flow cytometry.
(§2) Supplementary Fig. 13: Gating for Annexin V flow cytometry analysis. Total cells were gated to remove cell debris, followed by single cell gating on the FSC-A/FSC-H diagonal. Within the single […]
(§3) Live cells are negative for both fluorescent markers, DAPI positive/APC negative cells are necrotic, APC positive/DAPI negative cells are still alive but in the early stages of apoptosis, and double positive cells are dead via apoptosis. Percentages of early and late apoptosis were plotted in supplementary figures 4 and 5.
(§4) (1 picture or pasted object on this page, not shown here)

[4] = tested on: CRBN−/− MOLM-13 cells; assay: Annexin-V staining for apoptosis, CRBN−/− MOLM-13; format: cell-based, human; conditions: for Effect on viability of CRBN−/− cells (annexin-V): 1 μM; for Late apoptosis, flow cytometry / Early apoptosis, flow cytometry: CRBN-/-; for total apoptosis, flow cytometry: MOLM-13 CRBN-/-
Experimental: as §1, §2, §3, §4

[5] = Jurkat, 0.111 uM, read-out: IKZF1 Percent Maximum Degradation
[6] = Jurkat, 10 µM, over 24 h, read-out: IKZF1 Dmax (HiBiT)
[7] = MOLM-13, 4 h, read-out: CK1α DC50 (immunoblot)
[8] = SI_Fig 4c, DMSO 10.2, 11.1, 11.2
[9] = time course 0-8 hrs, relative to no treatment
[10] = western blot quantification, relative to DMSO

SMILES | Dmax at 0.111 µM [1, 5] [%] | Dmax at 10 µM [1, 6] [%] | DC50 [2, 7] | Dmax ([2]; MOLM-13, 4 h) [%] | Treatment-induced cell death (annexin-V) ([3]; 1 μM, 72 h) | total apoptosis, flow cytometry ([3]; SI_Fig 4c, DMSO 9.7, 8.6, 9.8) | total apoptosis, flow cytometry ([3]; SI_Fig 5c, DMSO 8, 7.6, 6.1) | Late apoptosis, flow cytometry ([3]; SI_Fig 4b, DMSO 3, 2.7, 3) | Early apoptosis, flow cytometry ([3]; SI_Fig 4b, DMSO 6.8, 5.8, 6.8) | Late apoptosis, flow cytometry ([3]; SI_Fig 5b, DMSO 1.5, 1.2, 1.2) | Early apoptosis, flow cytometry ([3]; SI_Fig 5b, DMSO 6.5, 6.4, 4.9) | Effect on viability of CRBN−/− cells (annexin-V) [4] | Late apoptosis, flow cytometry ([4]; SI_Fig 4b, DMSO 3.1, 3.5, 3.3) | Early apoptosis, flow cytometry ([4]; SI_Fig 4b, DMSO 7.1, 7.5, 7.8) | Late apoptosis, flow cytometry ([4]; SI_Fig 5b, DMSO 1.3, 1.9, 2) | Early apoptosis, flow cytometry ([4]; SI_Fig 5b, DMSO 4.6, 5.9, 7.6) | total apoptosis, flow cytometry [4, 8] | total apoptosis, flow cytometry ([4]; SI_Fig 5c, DMSO 5.8, 7.8, 9.6) | IKZF1 Percent Maximum Degradation ([1]; 10 uM, replicates) | also measured
Cc1cccc(C(=O)Nc2ccc3c(c2)CN(C2CCC(=O)NC2=O)C3=O)c1 (stereo not shown) [SJ0040] | 0 | < 10 | 11 nM | 88 | increased cell death | 14.9 and 12.6 and 13.6 | 33.8 and 33.6 and 34.8 | 4.1 and 3.7 and 4.5 | 10.8 and 9 and 9.1 | 11.1 and 11.7 and 11.8 | 22.7 and 21.8 and 23.1 | no effect on the viability | 3.1 and 2.5 and 2.8 | 7.6 and 5.6 and 6 | 2 and 1.5 and 1.3 | 5.5 and 5.1 and 4.5 | 10.6 and 8.1 and 8.8 | 7.5 and 6.5 and 5.9 |  | IKZF1 Percent Maximum Degradation ([1]; 10 uM, replicates, listed as SJ10040): -2.54% and -2.18% and 5.17% and -2.35%
O=C1CCC(N2Cc3cc(Nc4noc5ccccc45)ccc3C2=O)C(=O)N1 (stereo not shown) [SJ3149] |  | < 10 | 3.7 nM and 4 nM | 95 | increased cell death | 30.6 and 31.3 and 31.4 | 81.1 and 51.1 and 84.7 | 8.5 and 9.4 and 9.1 | 22.2 and 21.9 and 22.3 | 37.1 and 24.3 and 39.1 | 44 and 26.8 and 45.7 | no effect on the viability | 2.9 and 2.8 and 2.6 | 8.1 and 7.5 and 5.1 | 2.1 and 1.7 and 2.2 | 6.7 and 6.2 and 6.6 | 10.9 and 10.4 and 7.6 | 8.8 and 7.9 and 8.7 | 11.66% and -2.50% and 4.13% and 1.42% | CK1α protein, time course ([2]; MOLM-13, 1 μM, 0-8 h): near complete loss of CK1α protein by 1 h; CK1a western blot quantification ([2]; SJ3149 0.001 uM, relative to DMSO): 0.9925 and 0.9819 and 0.7065; CK1a western blot quantification ([2]; SJ3149 0.01 uM, relative to DMSO): 0.3125 and 0.2648 and 0.1727; CK1a western blot quantification ([2]; SJ3149 0.1 uM, relative to DMSO): 0.1087 and 0.1074 and 0.06013; CK1a quantified protein expression (western blot) ([2]; time 8 hrs, relative to no treatment, 3 western blots): 0.0615 and 0.09529 and 0.04877; IC50 (line fit, sigmoidal 4PL) of CK1a expression versus time ([2]; time course 0-8 hrs, X axis is time): 0.403; Bottom (line fit, sigmoidal 4PL) of CK1a expression versus time [2, 9]: 0.04517; Top (line fit, sigmoidal 4PL) of CK1a expression versus time [2, 9]: 0.8089; DC50 ([2]; western blot quantification, blots in fig 2b, read-out: IC50 (sigmoidal 4PL fit) of CK1a protein level): 3.75 nM; Bottom (sigmoidal 4PL fit) of CK1a protein level [2, 10]: 0.07909; Top (sigmoidal 4PL fit) of CK1a protein level [2, 10]: 1.004; Cells dead or dying (annexin-V) ([3]; 1 μM, 72 h): ~ 80%
O=C1CCC(N2Cc3c(CNC(=O)c4ccc(F)cc4)cccc3C2=O)C(=O)N1 (stereo not shown) [SJ7095] | 51.7 |  | 15 nM |  | increased cell death | 14.9 and 14.2 and 11 | 18.3 and 22.4 and 27.2 | 4.8 and 4.2 and 3.7 | 10.1 and 7.2 | 4.9 and 6.3 and 8.6 | 13.4 and 16.1 and 18.6 | no effect on the viability | 2.7 and 3 and 3.2 | 6.9 and 8.1 and 7 | 1.7 and 2.1 and 1.9 | 6.5 and 6.7 and 7.2 | 9.6 and 11.1 and 10.2 | 8.2 and 8.8 and 9.1 | 80.57% and 81.85% and 92.17% | IKZF1 Percent Maximum Degradation ([1]; 0.111 uM): 51.56% and 53.98% and 57.51%; IKZF1 Percent Maximum Degradation ([1]; 0.333 uM): 65.57% and 67.60% and 69.65%; IKZF1 Percent Maximum Degradation ([1]; 1 uM): 74.04% and 75.26% and 77.24%; IKZF1 Percent Maximum Degradation ([1]; 3 uM): 79.22% and 78.05% and 80.15%; Dmax at 0.333 µM ([1]; Jurkat, 0.333 uM, read-out: IKZF1 Percent Maximum Degradation): 64.8%; Dmax at 1 µM ([1]; Jurkat, 1 uM, read-out: IKZF1 Percent Maximum Degradation): 73.8%; Dmax at 3 µM ([1]; Jurkat, 3 uM, read-out: IKZF1 Percent Maximum Degradation): 78.4%; Dmax at 10 µM ([1]; Jurkat, 10 uM, replicates, read-out: IKZF1 Percent Maximum Degradation): 80%; DC50 ([1]; Jurkat, at 4 h): 69 nM; CK1α degradation ([2]; MOLM-13, 100 nM, 4 h): near complete degradation of CK1α
